Results as given in patent US20230295236A1, “COMPOUNDS FOR USE IN INFLAMMATORY CONDITIONS” (priority 2020, published 2023).
Where two headings read alike, the source gives them in different places. Numbered stars: 1 amine (or outer) side, 2 acyl side, 3 side chain; on linkers, the order of the positions; unused ones are H or OH. Bridge positions count the residues as written; N and C are the ends. Square brackets hold non-standard residues; d marks the D form. Peptide text beside a SMILES is read from it. * marks the point of attachment. Benzothiophen(2-yl)carbonyl = O=C(c1cc2ccccc2s1)*; X2 = CC[C@H](C)[C@@H](N[*:1])[C@@H](O)CC(=O)[*:2]; NMeY = CN[C@@H](Cc1ccc(O)cc1)C(=O)O; dNMeL = CN[C@H](CC(C)C)C(=O)O; Hiv = CC(C)[C@H](O)C(=O)O; Aib = CC(C)(N)C(=O)O

Experiments:
HCoV-229E = type: cell-based
[1] = test system: Huh-7 cells (human hepatoma cell line)
[2] = test system: IL6, IL8, IL1β and TNF-α secretion; test: Plitidepsin pre-treatment of THP-1 NFκB luc cells before Resiquimod: cytokines; type: cell-based, human; conditions: 1, 10 or 50 nM added 8 hours before Resiquimod 2.5 or 5 µg/mL; measured at 24 hours
Protocol: (§1) In a further in vitro experiment, the effect of plitidepsin (APL) pre-treatment on THP-1 cells was studied. Using a THP-1 NFκB luc line, 1, 10 or 50 nM of APL or DMSO (0.2%) was added 8 hours before stimulus with Resiquimod (RQ) at 2.5 or 5 µg/mL. RQ is a TLR⅞ agonist and mimics ssRNA. At 24 hours the level of cytokines or cell viability was measured.

THP-1 cells = test: Plitidepsin pre-treatment of THP-1 NFκB luc cells before Resiquimod: cell viability; type: cell-based, human; conditions: 1, 10 or 50 nM added 8 hours before Resiquimod 2.5 or 5 µg/mL; measured at 24 hours
Protocol: as §1

TNFα = test: Resiquimod-triggered TNFα in BALF of mice; type: in vivo; conditions: mice 1 mg/kg i.v. 1 hour before 50 µg/mouse intranasal resiquimod; 1 and 3 hours
alveolar macrophages = test: LPS animal inflammation model: macrophages in bronchoalveolar lavage by flow cytometry; type: in vivo, mouse; conditions: mice 1 mg/kg single i.v., LPS 20 µg/kg i.p.
Source text: Three hours later, bronchoalveolar lavages were collected.

SARS-CoV-2 = test: APLICOV-PC clinical study in patients hospitalised for COVID-19: efficacy; type: in vivo, human
[3] = test system: HIV-1 recombinant virus (NL4.3 Luc); type: cell-based; conditions: MT-2 cells
[4] = test system: HIV-1 recombinant virus (NL4.3 Luc); type: cell-based; conditions: PBMCs

## CC[C@H](C)[C@H]1NC(=O)[C@@H](NC(=O)[C@@H](CC(C)C)N(C)C(=O)c2cc3ccccc3s2)[C@@H](C)OC(=O)[C@H](Cc2ccc(OC)cc2)N(C)C(=O)[C@@H]2CCCN2C(=O)[C@H](CC(C)C)NC(=O)[C@H](C(C)C)OC(=O)C[C@@H]1O [Compound 10] ({Benzothiophen(2-yl)carbonyl}-[dNMeL]T[X2][Hiv]LP[NMeY](Me); ester 2-C)
HCoV-229E
  Antiviral activity (GFP fluorescence images): remarkable antiviral properties are seen across all concentrations
[1]
  Cell growth / viability (DAPI fluorescence images): cells remain viable at all concentrations

## CC[C@H](C)[C@H]1NC(=O)[C@@H](NC(=O)[C@@H](CC(C)C)NC)[C@@H](C)OC(=O)[C@H](Cc2ccc(OC)cc2)N(C)C(=O)[C@@H]2CCCN2C(=O)[C@H](CC(C)C)NC(=O)C(C)(C)NC(=O)C[C@@H]1O [Compound 3] (H-[dNMeL]T[X2][Aib]LP[NMeY](Me); ester 2-C)
MT-2 cells
  Toxic concentrations (not reached at): > 57.3 µM

## CC[C@H](C)[C@H]1NC(=O)[C@@H](NC(=O)[C@H](CC(C)C)N(C)C(=O)[C@@H]2CCCN2C(=O)C(C)=O)[C@@H](C)OC(=O)[C@H](Cc2ccc(OC)cc2)N(C)C(=O)[C@@H]2CCCN2C(=O)[C@H](CC(C)C)NC(=O)[C@@H](C)C(=O)[C@H](C(C)C)OC(=O)C[C@@H]1O [PLD, Plitidepsin]
[2]
  Secretion of IL6, IL8, IL1β and TNF-α induced by RQ: inhibited secretion of the pro-inflammatory cytokines: IL6, IL8, IL1β and TNF-α
THP-1 cells
  Cell viability: does not decrease viability over the untreated control
TNFα
  Resiquimod-induced TNFα production in BALF: prevented the increased production of TNFα
Alveolar macrophages
  Macrophages in bronchoalveolar lavage: reduces the number of macrophages in BAL
HCoV-229E
  Antiviral activity (GFP fluorescence images): remarkable antiviral properties are seen across all concentrations
SARS-CoV-2
  Median time for PCR conversion: 7 days
SARS-CoV-2; interim results
  Evaluable patients requiring post PLD specific anti COVID 19 therapy: 2 out of 8
  Evaluable patients with disease control and major clinical improvements: 6 out of 8
SARS-CoV-2; interim results, 1.5 mg and 2 mg cohorts
  Evaluable patients with PCR conversion to negative: 6 out of 8
SARS-CoV-2; interim results, 9 patients
  Deaths on study: no deaths on study
  Need for mechanical ventilation or ICU admission: none of the patients required mechanical ventilation or ICU admission
SARS-CoV-2; interim results, range (7 -19)
  Median time to hospital discharge: 8 days
[1]
  Cell growth / viability (DAPI fluorescence images): cells remain viable at all concentrations

## CC[C@H](C)[C@H]1NC(=O)[C@@H](NC(=O)[C@@H](CC(C)C)N(C)C(=O)[C@@H]2CCCN2C(=O)[C@H](C)NC(=O)[C@@H](Cc2ccccc2)NC(=O)OC(C)(C)C)[C@@H](C)OC(=O)[C@H](Cc2ccc(OC)cc2)N(C)C(=O)[C@@H]2CCCN2C(=O)[C@H](CC(C)C)NC(=O)[C@@H](C)C(=O)[C@H](C(C)C)OC(=O)C[C@@H]1O [Compound 9]
HCoV-229E
  Antiviral activity (GFP fluorescence images): remarkable antiviral properties are seen across all concentrations
[1]
  Cell growth / viability (DAPI fluorescence images): cells remain viable at all concentrations

## CC[C@H](C)[C@H]1NC(=O)[C@@H](NC(=O)[C@H](CC(C)C)N(C)C(=O)[C@@H]2CCCN2C(=O)C(C)=O)[C@@H](C)OC(=O)[C@H](Cc2ccc(OC)cc2)N(C)C(=O)[C@@H]2CCCN2C(=O)[C@H](CC(C)C)NC(=O)[C@@H](C)C(=O)[C@H](C(C)C)OC(=O)C[C@@H]1O [Compound 8]
[3]
  Antiviral activity: antiviral activity
[4]
  Antiviral activity: antiviral activity
